Laboratory results: patent US20210101874A1, “MICROBIOCIDAL OXADIAZOLE DERIVATIVES” (SYNGENTA PARTICIPATIONS AG, priority 2017, published 2021)

Columns and labels:
[1] = test system: Puccinia recondita f. sp. Tritici; assay: Puccinia recondita f. sp. tritici / wheat / leaf disc curative (brown rust); type: in vivo; details: foliar, 200 ppm in the applied formulation, wheat leaf segments cv. Kanzler, applied 1 day after inoculation, compared to untreated, assessed 6 to 8 days after application, read-out: disease control
In short: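 Compounds, prepared from DMSO solutions of at most 10 mg/ml and diluted just before spraying, are applied curatively to inoculated Kanzler wheat leaf segments. Segments are incubated at 19° C and 75% RH in a climate cabinet; disease control relative to untreated is evaluated 6 to 8 days later.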

[2] = test system: Glomerella lagenarium (Colletotrichum lagenarium); assay: Glomerella lagenarium (Colletotrichum lagenarium) liquid culture / cucumber / preventative (anthracnose); type: cell-based; details: Colletotrichum orbiculare; 20 ppm in the applied formulation; conidia in PDB nutrient broth, 24° C.; 3 to 4 days after application; compared to untreated; read-out: disease control (inhibition of growth measured photometrically)
In short: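 Test compound, diluted from DMSO, was mixed in microtiter wells with fungal conidia taken from cryogenic storage and suspended in PDB nutrient broth. After 3 to 4 days at 24 °C, photometric growth measurement gave antifungal activity as a percentage of the untreated control.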

[3] = test system: Puccinia recondita f. sp. Tritici; assay: Puccinia recondita f. sp. tritici / wheat / leaf disc preventative (brown rust); type: in vivo; details: foliar, 200 ppm in the applied formulation, wheat leaf segments cv. Kanzler, inoculated 1 day after application, compared to untreated, assessed 7 to 9 days after application, read-out: disease control
In short: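 Preventative leaf-segment test, cv. Kanzler on agar: spray compound, inoculate with spore suspension 1 d post-application, hold at 19° C./75% rh, 12 h/12 h light cycle. Read-out = % disease control vs untreated check at 7–9 d; 200 ppm in applied formulation.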

melting point [°C]	SMILES	pest or weed control at 200 ppm [1] [%]	inhibition at 20 ppm [2] [%]	pest or weed control at 200 ppm [3] [%]
94 to 96	CON(Cc1ccc(-c2noc(C(F)(F)F)n2)cc1)S(C)(=O)=O [Compound 1.5, N-methoxy-N-[[4-[5-(trifluoromethyl)-1,2,4-oxadiazol-3-yl]phenyl]methyl] methanesulfonamide]	≥ 80	≥ 80	–
70 to 73	CCCNS(=O)(=O)N(Cc1ccc(-c2noc(C(F)(F)F)n2)cc1)C1CC1 [Compound 1.21, 3-[4-[[cyclopropyl (propylsulfamoyl)amino]methyl]phenyl]-5-(trifluoromethyl)-1,2,4-oxadiazole]	–	≥ 80	–
140 to 144	O=S(=O)(Cc1ccc(Cl)cc1F)NCc1ccc(-c2noc(C(F)(F)F)n2)cc1 [Compound 3.6, 1-(4-chloro-2-fluoro-phenyl)-N-[[4-[5-(trifluoromethyl)-1,2,4-oxadiazol-3-yl]phenyl]methyl] methanesulfonamide]	–	–	≥ 80
99 to 101	O=S(=O)(N1CCOCC1)N(Cc1ccc(-c2noc(C(F)(F)F)n2)cc1)C1CC1 [Compound 1.7, N-cyclopropyl-N-[[4-[5-(trifluoromethyl)-1,2,4-oxadiazol-3-yl]phenyl]methyl] morpholine-4-sulfonamide]	–	≥ 80	≥ 80
125 to 135	O=S(=O)(Cc1ccccc1)Nc1ccc(-c2noc(C(F)(F)F)n2)cc1 [Compound 3.34, 1-phenyl-N-[4-[5-(trifluoromethyl)-1,2,4-oxadiazol-3-yl]phenyl]methane-sulfonamide]	–	≥ 80	–
108 to 110	O=S(=O)(NCc1ccc(-c2noc(C(F)(F)F)n2)cc1)N1CCOCC1 [Compound 3.8, N-[[4-[5-(trifluoromethyl)-1,2,4-oxadiazol-3-yl]phenyl]methyl] morpholine-4-sulfonamide]	≥ 80	≥ 80	≥ 80
109 to 111	CN(Cc1ccc(-c2noc(C(F)(F)F)n2)cc1)S(=O)(=O)Cc1ccccc1 [Compound 1.14, N-methyl-1-phenyl-N-[[4-[5-(trifluoromethyl)-1,2,4-oxadiazol-3-yl]phenyl]methyl] methanesulfonamide]	–	≥ 80	≥ 80
82 to 84	CN(C)S(=O)(=O)N(Cc1ccc(-c2noc(C(F)(F)F)n2)cc1)C1CC1 [Compound 1.6, N-(dimethylsulfamoyl)-N-[[4-[5-(trifluoromethyl)-1,2,4-oxadiazol-3-yl]phenyl]methyl] cyclopropanamine]	–	≥ 80	≥ 80
–	CNS(=O)(=O)N(C)Cc1ccc(-c2noc(C(F)(F)F)n2)cc1 [Compound 1.56, 3-[4-[[methyl (methylsulfamoyl)amino]methyl]phenyl]-5-(trifluoromethyl)-1,2,4-oxadiazole]	≥ 80	≥ 80	≥ 80
–	CCN(Cc1ccc(-c2noc(C(F)(F)F)n2)cc1)S(C)(=O)=O [Compound 1.62, N-ethyl-N-[[4-[5-(trifluoromethyl)-1,2,4-oxadiazol-3-yl]phenyl]methyl] methanesulfonamide]	≥ 80	≥ 80	≥ 80
–	CN(C)S(=O)(=O)NCc1ccc(-c2noc(C(F)(F)F)n2)cc1F [Compound 2.31, 3-[4-[(dimethyl-sulfamoylamino)methyl]-3-fluoro-phenyl]-5-(trifluoromethyl)-1,2,4-oxadiazole]	≥ 80	≥ 80	≥ 80
–	O=S(=O)(CC1CCOC1)NCc1ccc(-c2noc(C(F)(F)F)n2)cc1F (centres unmarked) [Compound 3.30, N-[[2-fluoro-4-[5-(trifluoromethyl)-1,2,4-oxadiazol-3-yl]phenyl]methyl]-1-tetrahydrofuran-3-yl-methanesulfonamide]	≥ 80	≥ 80	≥ 80
–	CN(Cc1ccc(-c2noc(C(F)(F)F)n2)cc1)S(=O)(=O)CC1CC1 [Compound 1.52, 1-cyclopropyl-N-methyl-N-[[4-[5-(trifluoromethyl)-1,2,4-oxadiazol-3-yl]phenyl]methyl] methanesulfonamide]	≥ 80	≥ 80	≥ 80
–	CCCN(Cc1ccc(-c2noc(C(F)(F)F)n2)cc1)S(=O)(=O)CCOC [Compound 1.73, 2-methoxy-N-propyl-N-[[4-[5-(trifluoromethyl)-1,2,4-oxadiazol-3-yl]phenyl]methyl] ethanesulfonamide]	≥ 80	≥ 80	≥ 80
–	C#CCNS(=O)(=O)N(C)Cc1ccc(-c2noc(C(F)(F)F)n2)cc1 [Compound 1.19, 3-[4-[[methyl(prop-2-ynylsulfamoyl)amino]methyl]phenyl]-5-(trifluoromethyl)-1,2,4-oxadiazole]	≥ 80	≥ 80	≥ 80
–	CNS(=O)(=O)NCc1ccc(-c2noc(C(F)(F)F)n2)cc1F [Compound 2.29, 1-[2-fluoro-4-[5-(trifluoromethyl)-1,2,4-oxadiazol-3-yl]phenyl]-N-(methylsulfamoyl) methanamine]	≥ 80	≥ 80	≥ 80
–	CCN(Cc1ccc(-c2noc(C(F)(F)F)n2)cc1)S(=O)(=O)NC [Compound 1.63, 3-[4-[[ethyl (methylsulfamoyl)amino]methyl]phenyl]-5-(trifluoromethyl)-1,2,4-oxadiazole]	≥ 80	≥ 80	≥ 80
–	CN(Cc1ccc(-c2noc(C(F)(F)F)n2)cc1)S(=O)(=O)c1ccn(C)n1 [Compound 1.41, N,1-dimethyl-N-[[4-[5-(trifluoromethyl)-1,2,4-oxadiazol-3-yl]phenyl]methyl] pyrazole-3-sulfonamide]	≥ 80	≥ 80	≥ 80
–	COC(=O)CS(=O)(=O)N(Cc1ccc(-c2noc(C(F)(F)F)n2)cc1)C(C)C [Compound 1.85, methyl 2-[isopropyl-[[4-[5-(trifluoromethyl)-1,2,4-oxadiazol-3-yl]phenyl]methyl]sulfamoyl]acetate]	≥ 80	≥ 80	≥ 80
–	O=S(=O)(CC1CC1)NCc1ccc(-c2noc(C(F)(F)F)n2)cc1F [Compound 3.31, 1-cyclopropyl-N-[[2-fluoro-4-[5-(trifluoromethyl)-1,2,4-oxadiazol-3-yl]phenyl]methyl] methanesulfonamide]	≥ 80	≥ 80	≥ 80
73 to 75	CON(Cc1ccc(-c2noc(C(F)(F)F)n2)cc1)S(=O)(=O)C1CC1 [Compound 1.9, N-methoxy-N-[[4-[5-(trifluoromethyl)-1,2,4-oxadiazol-3-yl]phenyl]methyl] cyclopropanesulfonamide]	–	≥ 80	–
112 to 115	O=S(=O)(NCc1ccc(-c2noc(C(F)(F)F)n2)cc1)c1ccc(F)cc1F [Compound 3.5, 2,4-difluoro-N-[[4-[5-(trifluoromethyl)-1,2,4-oxadiazol-3-yl]phenyl]methyl] benzenesulfonamide]	–	–	≥ 80
–	CCS(=O)(=O)NCc1ccc(-c2noc(C(F)(F)F)n2)cc1F [Compound 2.25, N-[[2-fluoro-4-[5-(trifluoromethyl)-1,2,4-oxadiazol-3-yl]phenyl]methyl] ethanesulfon-amide]	≥ 80	≥ 80	≥ 80
116 to 124	O=S(=O)(NCc1ccc(-c2noc(C(F)(F)F)n2)cc1)c1ccccc1 [Compound 3.1, N-[[4-[5-(trifluoromethyl)-1,2,4-oxadiazol-3-yl]phenyl]methyl] benzenesulfonamide]	–	≥ 80	≥ 80
–	CC(C)N(Cc1ccc(-c2noc(C(F)(F)F)n2)cc1)S(=O)(=O)N(C)C [Compound 1.100, N-(dimethylsulfamoyl)-N-[[4-[5-(trifluoromethyl)-1,2,4-oxadiazol-3-yl]phenyl]methyl] propan-2-amine]	≥ 80	≥ 80	≥ 80
–	C/C=C/S(=O)(=O)N(CC)Cc1ccc(-c2noc(C(F)(F)F)n2)cc1 [Compound 1.39, (E)-N-ethyl-N-[[4-[5-(trifluoromethyl)-1,2,4-oxadiazol-3-yl]phenyl]methyl] prop-1-ene-1-sulfonamide]	≥ 80	≥ 80	≥ 80
–	CCCN(Cc1ccc(-c2noc(C(F)(F)F)n2)cc1)S(C)(=O)=O [Compound 1.79, N-propyl-N-[[4-[5-(trifluoromethyl)-1,2,4-oxadiazol-3-yl]phenyl]methyl] methanesulfonamide]	≥ 80	≥ 80	≥ 80
